These compounds were tested on IL-10 (assay: Measurement of IL-10 increase rate (LPS-induced inflammation in mice, serum IL-10 by ELISA)). Conditions: Mus musculus, 2 h, oral 100 mg/kg in 0.5% methyl cellulose, LPS 0.4 mg/kg i.p. one hour later, serum taken one hour after LPS, % control ratio vs 0.5% methyl cellulose group, read-out: IL10 Increase Rate (%).
Assay type: in vivo
Description: A test substance was suspended in a 0.5% (w/v) methyl cellulose and orally administered to mice at a dose of 100 mg/kg. One hour later, a lipopolysaccharide (LPS, Sigma-Aldrich, L2630 (trade name)) (0.4 mg/kg) was intraperitoneally administered to induce inflammation. One hour after administration of LPS, blood was taken from the vena cava under anesthesia with isoflurane, placed in a tube containing a serum separating agent, allowed to stand still at room temperature for 20-30 minutes and centrifuged at 4° C. at 12,000 rpm for 5 minutes to obtain the serum. Thereafter, the amount of the IL-10 in the serum was measured by using Mouse IL-10 Quantikine ELISA Kit (R&D systems, M1000B (trade name)) or Mouse IL-10 Immunoassay kit (PerkinElmer, AL502 (trade name)) in accordance with the protocol of the kit. The serum was diluted 10 times with the dilution solution contained in the kit and put in use. IL-10 increase rate (% control ratio) of the compound was calculated in accordance with the following expression: IL-10 increase rate (% control ratio) (IL10 amount in compound administration group)×100/(IL-10 amount in 0.5% (w/v) methyl cellulose administration group)

| Compound | response vs control in vivo at 100 mg/kg |
| --- | --- |
| Cn1c(COc2cc(C(F)(F)F)ccn2)nnc1[C@H]1CC[C@H](c2cnn([C@H]3CC[C@H](N4CCOCC4)CC3)c2)CC1 [Example 23, 4-[trans-4-(4-{trans-4-[4-Methyl-5-({[4-(trifluoromethyl)pyridin-2-yl]oxy}methyl)-4H-1,2,4-triazol-3-yl]cyclohexyl}-1H-pyrazol-1-yl)cyclohexyl]morpholine] | 232% |
| Cn1c(COc2cc(C(F)(F)F)ccn2)nnc1[C@H]1CC[C@H](c2cnn([C@H]3CC[C@H](N4CC5(COC5)C4)CC3)c2)CC1 [Example 24, 6-[trans-4-(4-{trans-4-[4-Methyl-5-({[4-(trifluoromethyl)pyridin-2-yl]oxy}methyl)-4H-1,2,4-triazol-3-yl]cyclohexyl}-1H-pyrazol-1-yl)cyclohexyl]-2-oxa-6-azaspiro[3.3]heptane] | 257% |
| Cn1c(COc2cc(C(F)(F)F)ccn2)nnc1[C@H]1CC[C@H](c2cnn([C@H]3CC[C@H](N4CC5(CCO5)C4)CC3)c2)CC1 [Example 25, 6-[trans-4-(4-{trans-4-[4-Methyl-5-({[4-(trifluoromethyl)pyridin-2-yl]oxy}methyl)-4H-1,2,4-triazol-3-yl]cyclohexyl}-1H-pyrazol-1-yl)cyclohexyl]-1-oxa-6-azaspiro[3.3]heptane] | 216% |
| Cn1c(COc2cc(C(F)(F)F)ccn2)nnc1[C@H]1CC[C@H](c2cnn([C@H]3CC[C@H](N4CCC5(COC5)C4)CC3)c2)CC1 [Example 26, 6-[trans-4-(4-{trans-4-[4-Methyl-5-({[4-(trifluoromethyl)pyridin-2-yl]oxy}methyl)-4H-1,2,4-triazol-3-yl]cyclohexyl}-1H-pyrazol-1-yl)cyclohexyl]-2-oxa-6-azaspiro[3.4]octane] | 231% |
| Cn1c(COc2cc(C(F)(F)F)ccn2)nnc1[C@H]1CC[C@H](c2cnn([C@H]3CC[C@H](N4CC5(CCOC5)C4)CC3)c2)CC1 [Example 27, 2-[trans-4-(4-{trans-4-[4-Methyl-5-({[4-(trifluoromethyl)pyridin-2-yl]oxy}methyl)-4H-1,2,4-triazol-3-yl]cyclohexyl}-1H-pyrazol-1-yl)cyclohexyl]-6-oxa-2-azaspiro[3.4]octane] | 255% |
| Cn1c(COc2cc(C(F)(F)F)ccn2)nnc1[C@H]1CC[C@H](c2cnn([C@H]3CC[C@H](N4CC(CO)(CO)C4)CC3)c2)CC1 [Example 29, {1-[trans-4-(4-{trans-4-[4-Methyl-5-({[4-(trifluoromethyl)pyridin-2-yl]oxy}methyl)-4H-1,2,4-triazol-3-yl]cyclohexyl}-1H-pyrazol-1-yl)cyclohexyl]azetidine-3,3-diyl}dimethanol] | 111% |
| COC(=O)c1cccc(OCc2nnc([C@H]3CC[C@H](c4cnn([C@H]5CC[C@H](N6CCC6)CC5)c4)CC3)n2C)c1 [Example 30, Methyl 3-{[5-(trans-4-{1-[trans-4-(azetidin-1-yl)cyclohexyl]-1H-pyrazol-4-yl}cyclohexyl)-4-methyl-4H-1,2,4-triazol-3-yl]methoxy}benzoate] | 141% |
| COC(=O)c1cccc(OCc2nnc([C@H]3CC[C@H](c4cnn([C@H]5CC[C@H](N6CC7(COC7)C6)CC5)c4)CC3)n2C)c1 [Example 31, Methyl 3-{[4-methyl-5-(trans-4-{1-[trans-4-(2-oxa-6-azaspiro[3.3]hept-6-yl)cyclohexyl]-1H-pyrazol-4-yl}cyclohexyl)-4H-1,2,4-triazol-3-yl]methoxy}benzoate] | 222% |
| Cn1c(COC2CCCC(C(F)(F)F)C2)nnc1[C@H]1CC[C@H](c2cnn([C@H]3CC[C@H](N4CC5(CCOC5)C4)CC3)c2)CC1 (stereo partly drawn) [Example 32, 2-[trans-4-(4-{trans-4-[4-Methyl-5-({[3-(trifluoromethyl)cyclohexyl]oxy}methyl)-4H-1,2,4-triazol-3-yl]cyclohexyl}-1H-pyrazol-1-yl)cyclohexyl]-6-oxa-2-azaspiro[3.4]octane] | 202% |
| Cn1c(CCn2cccc(C(F)(F)F)c2=O)nnc1[C@H]1CC[C@H](c2cnn([C@H]3CC[C@H](N4CC5(CCOC5)C4)CC3)c2)CC1 [Example 33, 1-{2-[4-Methyl-5-(trans-4-{1-[trans-4-(6-oxa-2-azaspiro[3.4]oct-2-yl)cyclohexyl]-1H-pyrazol-4-yl}cyclohexyl)-4H-1,2,4-triazol-3-yl]ethyl}-3-(trifluoromethyl)pyridin-2(1H)-one] | 144% |
| CN1CCC(c2nnc(-c3ccc(-c4nnc(COc5cccc(C(F)(F)F)c5)n4C)cc3)o2)CC1 [Example 34, 1-Methyl-4-{5-[4-(4-methyl-5-{[3-(trifluoromethyl)phenoxy]methyl}-4H-1,2,4-triazol-3-yl)phenyl]-1,3,4-oxadiazol-2-yl}piperidine] | 202% |
| Cn1c(COc2cccc(Cl)c2)nnc1[C@H]1CC[C@H](c2cc([C@@H]3CC[C@@H](N4CCC4)CO3)on2)CC1 [Example 35, 3-(trans-4-{5-[(2S,5R)-5-(Azetidin-1-yl)tetrahydro-2H-pyran-2-yl]-1,2-oxazol-3-yl}cyclohexyl)-5-[(3-chlorophenoxy)methyl]-4-methyl-4H-1,2,4-triazole] | 184% |
| CC(C)c1cccc(O[C@H](C)c2nnc([C@H]3CC[C@H](C4=NOC5(CCN(C)CC5)C4)CC3)n2C)c1 [Example 36, 8-Methyl-3-[trans-4-(4-methyl-5-{(1R)-1-[3-(propan-2-yl)phenoxy]ethyl}-4H-1,2,4-triazol-3-yl)cyclohexyl]-1-oxa-2,8-diazaspiro[4.5]dec-2-ene] | 230% |

Source: patent US12297187B2, “Compound having cyclic structure” (Daiichi Sankyo Company, Limited, priority 2017, dated 2025)
